Measurements published in BindingDB's records for doi:10.1016/j.bmcl.2017.08.049 (Renmin Hospital of Wuhan University, 2018).

Assay: Inhibition of HIV1 3B gp41-induced cell-cell fusion between viral protein expressing human H9 cells and MT-2 target cells assessed as number of syncytia formation treated for 2 hrs measured after 6 hrs

IC50 [µM]	Structure (SMILES)
7.14	Cc1cc2c(c(O)c1-c1c(C)cc3c(c1O)/C(=C/NC(C)C(=O)NC(C)C(=O)O)C(=O)C(O)=C3C(C)C)/C(=C/NC(C)C(=O)NC(C)C(=O)O)C(=O)C(O)=C2C(C)C (configuration not stated)
6.67	Cc1cc2c(c(O)c1-c1c(C)cc3c(c1O)/C(=C/NC(C)S(=O)(=O)O)C(=O)C(O)=C3C(C)C)/C(=C/NC(C)S(=O)(=O)O)C(=O)C(O)=C2C(C)C (configuration not stated)
